Where “and” joins values, the source holds several entries; their conditions need not be identical. Equal entries are not always repeated. Structures can show the parent of a compound that is named as a salt.
How the values were obtained:
[1] = tested on: Clostridium histolyticum collagenase; experiment: Bacterial collagenase-based anti-MMP screening assay (SDS-PAGE gel analysis of undegraded Type I collagen); format: biochemical
Description: Bacterial collagenase-based anti-MMP screening assay: This assay employs purified Clostridium histolyticum collagenase (hereinafter “collagenase”) as the test enzyme for screening anti-MMP activity of compounds of interest. The screening assay involves incubating a constant concentration of collagenase with Type I soluble collagen and quantifying the amount of Type I collagen that remains undegraded in the presence of collagenase in the presence and absence of different test compounds. The basic assay composition comprises 50 μg of Type I collagen (e.g., human placental; Cat. # C7521; Sigma-Aldrich, St. Louis, […]., USA) and 50 μg of collagenase (e.g., Clostridium histolyticum E.C. 3.4.24.3; Cat. No. C7667 (1909 CDU/mg solid); Sigma-Aldrich, St. Louis, […]., USA) in a physiological buffer (pH 7.4) containing zinc ions, with a total reaction volume of 60 μl. […] The buffer composition used comprises […] Tris Base, 200 mM NaCl, 10 mM CaCl2, 0.05 mM ZnCl2, 3 mM NaN3 adjusted to […] with 1 N HCl.
Compounds of interest are added to the reaction system described above to assess their ability to inhibit collagenase degradation of collagen. As test compounds vary with respect to molecular weight and affinity for the dentin matrix, a range of concentrations (wt %) for each compound may be added to the basic reaction. Test compounds may be diluted approximately 1:5 in the final reaction volume by the subsequent sequential addition of solutions containing collagenase, collagen, and buffer.
The enzyme and the collagen are kept on ice. Twenty μL of enzyme (concentration of 5 μg protein/μL×20 μL=100 μg of enzyme) protein was incubated with 5 μL of loading buffer and 20 μL of inhibitor. The reaction was started by adding 20 μL of type I collagen (5 μg/μL×20=100 μg collagen). Thus, the total volume was 65 μL. The total protein was 100 μg enzyme protein plus 100 μg of collagen=200 μg protein in 65 μL. Thirty μL of that mixture was applied to the gel (30/65×200 μg protein=92.3 μg protein. Because the total volume was 65 μL and the inhibitor volume was 20 μL, the inhibitor was diluted 3.25-fold.
Following assembly, reactions are incubated for one hour at 37° C. The incubation reactions were terminated by submerging the tube in boiling water for 3 min. After termination, 30 μL of each reaction assay containing 92 μg of total protein is loaded onto a 7.5% SDS-PAGE polyacrylamide gel (BioRad, Hercules, Calif.) and subjected to electrophoresis at 200 V for 60 min. SDS-PAGE gels are routinely run with samples and various controls in the following order. The nature of the controls is further described below. Controls include collagenase alone (lane 1); collagen alone (lane 2); and collagen mixed with collagenase (lane 3). Assay reactions containing collagen mixed with collagenase plus various concentrations of the test collagenase inhibitor compounds are then loaded on the gel starting with lane 4 (loaded in order of decreasing compound concentration).
Following electrophoresis of the samples, the gel is stained in 0.25% Coomassie Brilliant Blue overnight and destained for 8 hrs in water prior to imaging. After destaining, the gels are digitally scanned to permit quantification of the amount of undegraded collagen present in each reaction, relative to the collagen standard in lane 2.
With regards to the controls, both Type I collagen and collagenase are proteins too large to migrate very far into the SDS-PAGE gel.

human recombinant MMP-9 = molecular target: T1, human recombinant MMP-9 (Homo sapiens, UniProt P14780); experiment: Human MMP-9-based anti-MMP screening assay (Sensolyte Generic MMP colorimetric kit); format: biochemical; details: soluble human MMP-9
T1 construct: purchased AnaSpec, Inc. 72009
Description: Human MMP-9-based anti-MMP screening assay: This assay employed purified human recombinant MMP-9 (Cat. No. 72009) and the Sensolyte Generic MMP colorimetric assay kit (Cat. No. 72095) from AnaSpec, Inc. (San Jose, Calif., USA) for screening anti-MMP activity of compounds of interest. This assay involves incubating a constant concentration of human MMP-9 with a proprietary thiopeptide substrate and quantifying the amount of substrate cleaved by the […] in the presence and absence of different test compounds. Cleavage of the proprietary thiopeptide substrate is quantitated by evaluating color production. Reactions may be assembled in a 96-well plate. After incubation for 30 minutes at 37° C., reactions are stopped and absorption measured at 412 nm using a 96-well plate reader synergy HT (BioTek Instruments, Inc., Winooski, Vt., USA).

T1 sequence (P14780 94-707): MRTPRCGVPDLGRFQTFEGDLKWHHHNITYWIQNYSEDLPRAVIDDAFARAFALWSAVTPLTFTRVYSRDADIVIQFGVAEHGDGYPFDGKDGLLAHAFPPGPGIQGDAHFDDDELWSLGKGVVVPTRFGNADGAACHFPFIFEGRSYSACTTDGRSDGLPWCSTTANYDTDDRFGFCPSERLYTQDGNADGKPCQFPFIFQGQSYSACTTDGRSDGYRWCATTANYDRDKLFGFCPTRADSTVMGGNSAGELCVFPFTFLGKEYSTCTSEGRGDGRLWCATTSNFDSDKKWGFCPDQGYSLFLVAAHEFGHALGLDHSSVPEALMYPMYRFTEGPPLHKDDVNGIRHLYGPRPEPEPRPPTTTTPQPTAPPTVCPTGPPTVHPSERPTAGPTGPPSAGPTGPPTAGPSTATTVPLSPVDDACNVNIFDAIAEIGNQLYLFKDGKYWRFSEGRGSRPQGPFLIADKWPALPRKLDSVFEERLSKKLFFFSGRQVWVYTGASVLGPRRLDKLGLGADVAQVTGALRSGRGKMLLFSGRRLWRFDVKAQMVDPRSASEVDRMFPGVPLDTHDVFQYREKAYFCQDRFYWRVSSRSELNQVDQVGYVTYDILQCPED

O=C(O)CN(CCN(CC(=O)O)CC(=O)O)CC(=O)O [EDTA, reference compound]
inhibited collagenase ([1]; inhibitor 10 mM (control lane)): 100% and 87%

benzalkonium chloride [reference compound]
COLLAGENASE INHIBITION (%) ([1]; inhibitor 10 wt %): no inhibitory activity

C=C(C)C(=O)OCC[N+](C)(C)C [MCMS, 2-[(Methacryloyloxy)ethyl]trimethylammonium methyl sulfate]
% MMP ACTIVITY INHIBITION (t = 30 minutes) (human recombinant MMP-9; inhibitor 10 wt %): 55%
% MMP ACTIVITY INHIBITION (t = 30 minutes) (human recombinant MMP-9; inhibitor 24 wt %): 84%
COLLAGENASE INHIBITION (%) ([1]; inhibitor 0.5 wt %): 73%
COLLAGENASE INHIBITION (%) ([1]; inhibitor 1 wt %): 70%
COLLAGENASE INHIBITION (%) ([1]; inhibitor 4 wt %): 65%
COLLAGENASE INHIBITION (%) ([1]; inhibitor 8 wt %): 62%
COLLAGENASE INHIBITION (%) ([1]; inhibitor 16 wt %): 87%

pyridinium tribromide [reference compound]
COLLAGENASE INHIBITION (%) ([1]; inhibitor 1 wt %): no inhibitory activity

C=C(C)C(=O)OCC[N+](C)(C)C.[Cl-] [METMAC, [2-(Methacryloyloxy)ethyl]trimethylammonium chloride]
% MMP ACTIVITY INHIBITION (t = 30 minutes) (human recombinant MMP-9; inhibitor 10 wt %): 42%
% MMP ACTIVITY INHIBITION (t = 30 minutes) (human recombinant MMP-9; inhibitor 24 wt %): 71%
COLLAGENASE INHIBITION (%) ([1]; inhibitor 1.3 wt %): 39%
COLLAGENASE INHIBITION (%) ([1]; inhibitor 6.4 wt %): 56%
inhibited collagenase ([1]; inhibitor 12.85%): 69%
COLLAGENASE INHIBITION (%) ([1]; inhibitor 12.9 wt %): 69%
COLLAGENASE INHIBITION (%) ([1]; inhibitor 25.7 wt %): 100%

Cc1c(OCC(O)C[N+](C)(C)C)cc2c(=O)c3ccccc3sc2c1C.[Cl-] (stereo not drawn) [OTX, [3-(3,4-dimethyl-9-oxo-9H-thioxanthen-2-yloxy)-2-hydroxypropyl] trimethyl ammonium chloride]
COLLAGENASE INHIBITION (%) ([1]; inhibitor 0.1 wt %): 57%
COLLAGENASE INHIBITION (%) ([1]; inhibitor 0.2 wt %): 86%

C=C(C)C(=O)NCCC[N+](C)(C)C.[Cl-] [MAPTAC, [3-(Methacryloylamino)propyl]trimethylammonium chloride]
% MMP ACTIVITY INHIBITION (t = 30 minutes) (human recombinant MMP-9; inhibitor 10 wt %): 6%
% MMP ACTIVITY INHIBITION (t = 30 minutes) (human recombinant MMP-9; inhibitor 24 wt %): 17%
COLLAGENASE INHIBITION (%) ([1]; inhibitor 0.1 wt %): 41%
COLLAGENASE INHIBITION (%) ([1]; inhibitor 0.5 wt %): 39%
COLLAGENASE INHIBITION (%) ([1]; inhibitor 1 wt %): 53%
COLLAGENASE INHIBITION (%) ([1]; inhibitor 5 wt %): 53%
COLLAGENASE INHIBITION (%) ([1]; inhibitor 10 wt %): 55%

C=CC(=O)OCC[N+](C)(C)C.[Cl-] [ATA, 2-Acryloxyethyltrimethylammonium chloride]
% MMP ACTIVITY INHIBITION (t = 30 minutes) (human recombinant MMP-9; inhibitor 10 wt %): 79%
% MMP ACTIVITY INHIBITION (t = 30 minutes) (human recombinant MMP-9; inhibitor 24 wt %): 82%
COLLAGENASE INHIBITION (%) ([1]; inhibitor 0.5 wt %): 57%
COLLAGENASE INHIBITION (%) ([1]; inhibitor 1 wt %): 55%
COLLAGENASE INHIBITION (%) ([1]; inhibitor 4 wt %): 44%
COLLAGENASE INHIBITION (%) ([1]; inhibitor 8 wt %): 49%
COLLAGENASE INHIBITION (%) ([1]; inhibitor 16 wt %): 73%

CCCCCCCCCCCCCCCC[N+](C)(C)C.[Br-] [hexadecyl trimethyl ammonium bromide, reference compound]
inhibitory activity against collagenase ([1]; inhibitor 0.15% in ethanol): no inhibitory activity

CC(=O)O.CC(=O)O.NC(=N\CCCCCC/N=C(N)/N=C(\N)Nc1ccc(Cl)cc1)/N=C(\N)Nc1ccc(Cl)cc1 [Chlorhexidine diacetate, chlorhexidine diacetate, reference compound]
COLLAGENASE INHIBITION (%) ([1]; inhibitor 0.02 wt %): 1%
COLLAGENASE INHIBITION (%) ([1]; inhibitor 0.02 wt %, listed as CHX): did not inhibit collagenase
COLLAGENASE INHIBITION (%) ([1]; inhibitor 0.2 wt %): 74%
COLLAGENASE INHIBITION (%) ([1]; inhibitor 0.2 wt %, listed as CHX): 69%

C=CC[N+](C)(C)CC=C.[Cl-] [DDAC, Diallyldimethylammonium chloride]
% MMP ACTIVITY INHIBITION (t = 30 minutes) (human recombinant MMP-9; inhibitor 10 wt %): 7%
% MMP ACTIVITY INHIBITION (t = 30 minutes) (human recombinant MMP-9; inhibitor 24 wt %): 16%
COLLAGENASE INHIBITION (%) ([1]; inhibitor 0.5 wt %): 50%
COLLAGENASE INHIBITION (%) ([1]; inhibitor 1 wt %): 56%
COLLAGENASE INHIBITION (%) ([1]; inhibitor 3 wt %): 59%
COLLAGENASE INHIBITION (%) ([1]; inhibitor 6 wt %): 66%
COLLAGENASE INHIBITION (%) ([1]; inhibitor 12 wt %): 73%
